Reference: US5066783A, “Antiviral peptides and means for treating herpes infections” (priority 1988, dated 1991)
“And” between values parts separate entries of the source, which are not always exact repeats. Identical values can stand only once. Like-named read-outs stand apart in the source and are kept apart here. Where a SMILES comes first, the peptide text is derived from it. Where no end group is shown, it is not given here. [ ]: non-standard residue; d: D form. The star is where a group is joined. Phe(4-NO2) = N[C@@H](Cc1ccc([N+](=O)[O-])cc1)C(=O)O; Phe(4-NH2) = Nc1ccc(C[C@H](N)C(=O)O)cc1; Desaminotyrosyl = O=C(CCc1ccc(O)cc1)*

Key:
[1] = target: T1, herpes simplex viral ribonucleotide reductase (Human herpesvirus 1, UniProt P08543); assay: biochemical; type: biochemical, herpes simplex virus
T1 construct: endogenous in cells

[2] = target: ribonucleotide reductase from HSV-1 (strain F)-infected BHK-21/C13 cells (Human herpesvirus 1, UniProt P08543); assay: HSV-1 ribonucleotide reductase (CDP reductase) inhibition; conditions: 75 μg protein extract
HSV-2 strain HG-52 = assay: Guinea pig cutaneous herpes infection model, HSV-2; type: in vivo; conditions: HSV-2 group, mean score
HSV-1 strain MP-12 = assay: Guinea pig cutaneous herpes infection model, HSV-1; type: in vivo; conditions: HSV-1 group, mean score
[3] = 75 μg enzyme preparation (21.6 units mg^-1), mean of four assays
[4] = IC50 (concentration producing 50% of the maximal inhibition of enzyme activity)
[5] = read-out: IC50 (concentration producing 50% of the maximal inhibition of enzyme activity), 75 μg enzyme preparation (21.6 units mg^-1), mean of four assays
[6] = read-out: IC50 (concentration producing 50% of the maximal inhibition of enzyme activity)

T1 sequence (P08543 whole entry): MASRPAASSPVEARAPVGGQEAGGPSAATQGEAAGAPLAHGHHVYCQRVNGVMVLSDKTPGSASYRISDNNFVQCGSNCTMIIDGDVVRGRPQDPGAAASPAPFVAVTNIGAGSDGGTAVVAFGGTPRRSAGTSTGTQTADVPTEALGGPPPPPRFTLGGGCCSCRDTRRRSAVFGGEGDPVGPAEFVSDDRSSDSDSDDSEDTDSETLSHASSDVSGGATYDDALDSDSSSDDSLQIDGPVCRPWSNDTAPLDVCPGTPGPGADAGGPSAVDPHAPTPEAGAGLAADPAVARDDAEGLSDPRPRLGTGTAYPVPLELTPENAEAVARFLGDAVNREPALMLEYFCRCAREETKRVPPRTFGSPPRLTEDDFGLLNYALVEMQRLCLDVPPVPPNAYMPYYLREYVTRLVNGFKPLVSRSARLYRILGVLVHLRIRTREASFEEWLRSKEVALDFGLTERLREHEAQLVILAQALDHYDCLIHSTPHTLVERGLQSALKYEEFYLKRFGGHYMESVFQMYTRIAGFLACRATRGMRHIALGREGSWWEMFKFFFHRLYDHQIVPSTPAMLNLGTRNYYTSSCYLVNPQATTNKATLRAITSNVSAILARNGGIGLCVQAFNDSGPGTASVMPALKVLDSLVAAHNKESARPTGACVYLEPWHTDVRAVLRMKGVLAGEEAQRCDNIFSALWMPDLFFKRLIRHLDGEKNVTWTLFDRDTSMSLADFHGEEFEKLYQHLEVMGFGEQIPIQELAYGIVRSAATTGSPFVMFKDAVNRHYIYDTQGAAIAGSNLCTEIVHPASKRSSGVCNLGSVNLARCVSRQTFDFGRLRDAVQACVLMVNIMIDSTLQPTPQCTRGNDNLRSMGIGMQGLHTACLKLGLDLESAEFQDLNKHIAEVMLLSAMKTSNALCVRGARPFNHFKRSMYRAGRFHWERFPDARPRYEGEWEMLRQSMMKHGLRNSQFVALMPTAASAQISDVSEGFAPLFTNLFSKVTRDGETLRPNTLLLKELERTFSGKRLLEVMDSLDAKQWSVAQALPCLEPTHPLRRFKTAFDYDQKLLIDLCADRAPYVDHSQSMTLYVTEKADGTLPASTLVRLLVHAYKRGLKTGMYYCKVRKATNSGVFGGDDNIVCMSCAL
Sequence of ribonucleotide reductase from HSV-1 (strain F)-infected BHK-21/C13 cells (P08543 whole entry): as above

Ac-YVVNDL-OH [Ac--Tyr--Val--Val--Asn--Asp--Leu--OH]
IC50 [1]: 31 µM

Ac-Y(Ac)AGFVINDL [Ac--Tyr(OAc)--Ala--Gly--Phe--Val--Ile--Asn--Asp--Leu--OH]
IC50 [1, 3]: 14 µM

Ac-YAATVINDL-OH [Ac--Tyr--Ala--Ala--Thr--Val--Ile--Asn--Asp--Leu--OH]
IC50 [1]: 15 µM

H-YSGAVVNDL-OH [H--Tyr--Ser--Gly--Ala--Val--Val--Asn--Asp--Leu--OH]
IC50 [1, 3]: 90 µM

H-YTMLVVDDL-OH [EBV 7-15]
% CDP REDUCTASE ACTIVITY ([2]; 10 μM peptide): 100% | % CDP REDUCTASE ACTIVITY ([2]; 25 μM peptide): 100% | % CDP REDUCTASE ACTIVITY ([2]; 50 μM peptide): 100% | % CDP REDUCTASE ACTIVITY ([2]; 100 μM peptide): 70% | % CDP REDUCTASE ACTIVITY ([2]; 400 μM peptide): 10%

H-YAGTVINDL-OH [H--Tyr--Ala--Gly--Thr--Val--Ile--Asn--Asp--Leu--OH]
IC50 [1, 3]: 15 µM

Ac-YAGTVINDL-OH [Ac--Tyr--Ala--Gly--Thr--Val--Ile--Asn--Asp--Leu--OH]
IC50 [1, 4]: 2 µM and 5.2 µM

H-YAGAVVNDI-OH [H--Tyr--Ala--Gly--Ala--Val--Val--Asn--Asp--Ile--OH]
IC50 [1]: 110 µM

COc1ccc(C[C@H](NC(C)=O)C(=O)N[C@@H](C)C(=O)NCC(=O)N[C@@H](C)C(=O)N[C@H](C(=O)N[C@H](C(=O)N[C@@H](CC(N)=O)C(=O)N[C@@H](CC(=O)O)C(=O)N[C@@H](CC(C)C)C(=O)O)C(C)C)C(C)C)cc1 [Ac--Tyr(OMe)--Ala--Gly--Ala--Val--Val--Asn--Asp--Leu--OH]
IC50 [1, 5]: 40 µM

Nc1nc2c(ncn2COCCO)c(=O)[nH]1 [Acyclovir, acyclovir]
skin lesion score (HSV-2 strain HG-52; day 1, topical twice daily): 0.50 | skin lesion score (HSV-2 strain HG-52; day 2, topical twice daily): 0.50 | skin lesion score (HSV-2 strain HG-52; day 3, topical twice daily): 0.63 | skin lesion score (HSV-2 strain HG-52; day 4, topical twice daily): 0.67 | skin lesion score (HSV-2 strain HG-52; day 5, topical twice daily): 1.23 | skin lesion score (HSV-2 strain HG-52; day 6, topical twice daily): 0.57 | skin lesion score (HSV-2 strain HG-52; day 7, topical twice daily): 0.40 | skin lesion score (HSV-2 strain HG-52; day 8, topical twice daily): 0.13 | skin lesion score (HSV-2 strain HG-52; day 9, topical twice daily): 0.13 | skin lesion score (HSV-2 strain HG-52; day 10, topical twice daily): 0.00 | skin lesion score (HSV-2 strain HG-52; day 11, topical twice daily): 0.00 | skin lesion score (HSV-1 strain MP-12; day 1, topical twice daily): 0.50 | skin lesion score (HSV-1 strain MP-12; day 2, topical twice daily): 0.50 | skin lesion score (HSV-1 strain MP-12; day 3, topical twice daily): 0.28 | skin lesion score (HSV-1 strain MP-12; day 4, topical twice daily): 0.20 | skin lesion score (HSV-1 strain MP-12; day 5, topical twice daily): 0.20 | skin lesion score (HSV-1 strain MP-12; day 6, topical twice daily): 0.20 | skin lesion score (HSV-1 strain MP-12; day 7, topical twice daily): 0.15 | skin lesion score (HSV-1 strain MP-12; day 8, topical twice daily): 0.00 | skin lesion score (HSV-1 strain MP-12; day 9, topical twice daily): 0.00 | skin lesion score (HSV-1 strain MP-12; day 10, topical twice daily): 0.00 | skin lesion score (HSV-1 strain MP-12; day 11, topical twice daily): 0.00

CC(=O)N[C@@H](Cc1ccc(O)cc1)C(=O)N[C@@H](C)C(=O)NCC(=O)N[C@@H](C)C(=O)N[C@H](C(=O)N[C@H](C(=O)N[C@@H](CC(N)=O)C(=O)N[C@@H](CC(=O)O)C(=O)N[C@@H](CC(C)C)C(=O)O)C(C)C)C(C)C [Ac--Tyr--Ala--Gly--Ala--Val--Val--Asn--Asp--Leu--OH]
IC50 [1, 6]: 20 µM

CC(=O)N[C@H](Cc1ccc(O)cc1)C(=O)N[C@@H](C)C(=O)NCC(=O)N[C@@H](C)C(=O)N[C@H](C(=O)N[C@H](C(=O)N[C@@H](CC(N)=O)C(=O)N[C@@H](CC(=O)O)C(=O)N[C@@H](CC(C)C)C(=O)O)C(C)C)C(C)C [Ac--D--Tyr--Ala--Gly--Ala--Val--Val--Asn--Asp--Leu--OH]
IC50 [1, 6]: 165 µM

Ac-YSVINDL-OH [Ac--Tyr--Ser--Val--Ile--Asn--Asp--Leu--OH]
IC50 [1]: 77 µM

Ac-FVINDL-OH [Ac--Phe--Val--Ile--Asn--Asp--Leu--OH]
IC50 [1]: 42 µM

H-YAGPVVNDL-OH [H--Tyr--Ala--Gly--Pro--Val--Val--Asn--Asp--Leu--OH]
IC50 [1, 5]: 48 µM

H-YAPAVINDL-OH [H--Tyr--Ala--Pro--Ala--Val--Ile--Asn--Asp--Leu--OH]
IC50 [1]: 37 µM

H-YAGAVLDDL-OH [H--Tyr--Ala--Gly--Ala--Val--Leu--Asp--Asp--Leu--OH]
IC50 [1]: 90 µM

H-HAGAVVNDL-OH [H--His--Ala--Gly--Ala--Val--Val--Asn--Asp--Leu--OH]
IC50 [1, 3]: 400 µM

Ac-YVINDL-OH [Ac--Tyr--Val--Ile--Asn--Asp--Leu--OH]
IC50 [1]: 27 µM

CC[C@H](C)[C@H](NC(=O)[C@H](CC(=O)O)NC(=O)[C@H](CC(N)=O)NC(=O)[C@@H](NC(=O)[C@@H](NC(=O)[C@H](C)NC(=O)CNC(=O)[C@H](C)NC(=O)[C@H](Cc1ccc(O)cc1)NC(=O)[C@@H](N)Cc1ccc([N+](=O)[O-])cc1)C(C)C)C(C)C)C(=O)O [H--(4-NO2 -Phe)--Tyr--Ala--Gly--Ala--Val--Val--Asn--Asp--Ile--OH] (H-[Phe(4-NO2)]YAGAVVNDI-OH)
IC50 [1, 3]: 6.8 µM

H-KYAGAVVNDL-OH [H--Lys--Tyr--Ala--Gly--Ala--Val--Val--Asn--Asp--Leu--OH]
IC50 [1, 5]: 68 µM

CC[C@H](C)[C@H](NC(=O)[C@H](CC(=O)O)NC(=O)[C@H](CC(N)=O)NC(=O)[C@@H](NC(=O)[C@@H](NC(=O)[C@H](C)NC(=O)CNC(=O)[C@H](C)NC(=O)[C@H](Cc1ccc(O)cc1)NC(=O)[C@@H](N)Cc1ccc(N)cc1)C(C)C)C(C)C)C(=O)O [H--(4-NH2 -Phe)--Tyr--Ala--Gly--Ala--Val--Val--Asn--Asp--Ile--OH] (H-[Phe(4-NH2)]YAGAVVNDI-OH)
IC50 [1, 3]: 15 µM

Ac-YGAVVNDL-OH [Ac--Tyr--Gly--Ala--Val--Val--Asn--Asp--Leu--OH]
IC50 [1, 6]: 150 µM

H-YAVVNDL-OH [H--Tyr--Ala--Val--Val--Asn--Asp--Leu--OH]
IC50 [1, 6]: 340 µM

Ac-YAGFVINDL-OH [Ac--Tyr--Ala--Gly--Phe--Val--Ile--Asn--Asp--Leu--OH]
IC50 [1, 3]: 4.2 µM

H-FAGAVVNDL-OH [H--Phe--Ala--Gly--Ala--Val--Val--Asn--Asp--Leu--OH]
IC50 [1]: 68 µM

CC(=O)N[C@@H](Cc1ccc(O)cc1)C(=O)N[C@@H](C)C(=O)NCC(=O)N[C@@H](C)C(=O)N[C@H](C(=O)N[C@H](C(=O)N[C@@H](CC(N)=O)C(=O)N[C@@H](CC(=O)O)C(=O)N[C@@H](CC(C)C)C(N)=O)C(C)C)C(C)C [Ac--Tyr--Ala--Gly--Ala--Val--Val--Asn--Asp--Leu--NH2]
IC50 [1, 5]: 76 µM

Ac-YAGTIVNDL-OH [Ac--Tyr--Ala--Gly--Thr--Ile--Val--Asn--Asp--Leu--OH]
IC50 [1]: 4.9 µM

CC(C)C[C@H](NC(=O)[C@H](CC(=O)O)NC(=O)[C@H](CC(N)=O)NC(=O)[C@@H](NC(=O)[C@@H](NC(=O)[C@H](C)NC(=O)CNC(=O)[C@H](C)NC(=O)[C@@H](N)Cc1ccc(O)cc1)C(C)C)C(C)C)C(N)=O [H--Tyr--Ala--Gly--Ala--Val--Val--Asn--Asp--Leu--NH2]
IC50 [1, 6]: 190 µM

CC[C@H](C)[C@H](NC(=O)[C@@H](NC(=O)CCc1ccc(O)cc1)C(C)C)C(=O)N[C@@H](CC(N)=O)C(=O)N[C@@H](CC(=O)O)C(=O)N[C@@H](CC(C)C)C(=O)O [desamino-Tyr--Val--Ile--Asn--Asp--Leu--OH] (Desaminotyrosyl-VINDL-OH)
IC50 [1]: 17 µM

CC(C)C[C@H](NC(=O)[C@H](CC(=O)O)NC(=O)[C@H](CC(N)=O)NC(=O)[C@@H](NC(=O)[C@@H](NC(=O)[C@H](C)NC(=O)CNC(=O)[C@H](C)NC(=O)[C@H](Cc1ccc(O)cc1)NC(=O)CCCCCCCN)C(C)C)C(C)C)C(=O)O [NH2 (CH2)7 CO--Tyr--Ala--Gly--Ala--Val--Val--Asn--Asp--Leu--OH]
IC50 [1, 3]: 12.3 µM

Ac-YSGTVINDL-OH [Ac--Tyr--Ser--Gly--Thr--Val--Ile--Asn--Asp--Leu--OH]
IC50 [1, 4]: 1.9 µM

Ac-YAGTVIQDL-OH [Ac--Tyr--Ala--Gly--Thr--Val--Ile--Gln--Asp--Leu--OH]
IC50 [1]: 36.5 µM

H-STSYAGAVVNDL-OH [HSV 4-15]
% CDP REDUCTASE ACTIVITY ([2]; 10 μM peptide): 87% | % CDP REDUCTASE ACTIVITY ([2]; 25 μM peptide): 71% | % CDP REDUCTASE ACTIVITY ([2]; 50 μM peptide): 47% | % CDP REDUCTASE ACTIVITY ([2]; 100 μM peptide): 18% | % CDP REDUCTASE ACTIVITY ([2]; 400 μM peptide): 11%

CC[C@H](C)[C@H](NC(=O)[C@@H](NC(=O)[C@H](Cc1ccc(OC)cc1)NC(C)=O)C(C)C)C(=O)N[C@@H](CC(N)=O)C(=O)N[C@@H](CC(=O)O)C(=O)N[C@@H](CC(C)C)C(=O)O [Ac--Tyr(OMe)--Val--Ile--Asn--Asp--Leu--OH] (Ac-Y(Me)VINDL-OH)
IC50 [1]: 24 µM

Ac-YAVVNDL-OH [Ac--Tyr--Ala--Val--Val--Asn--Asp--Leu--OH]
IC50 [1, 5]: 330 µM

COc1ccc(C[C@H](N)C(=O)N[C@@H](C)C(=O)NCC(=O)N[C@@H](C)C(=O)N[C@H](C(=O)N[C@H](C(=O)N[C@@H](CC(N)=O)C(=O)N[C@@H](CC(=O)O)C(=O)N[C@@H](CC(C)C)C(=O)O)C(C)C)C(C)C)cc1 [H--Tyr(OMe)--Ala--Gly--Ala--Val--Val--Asn--Asp--Leu--OH]
IC50 [1, 6]: 88 µM

H-YVVNDL-OH [H--Tyr--Val--Val--Asn--Asp--Leu--OH]
IC50 [1]: 81 µM

CC(=O)N[C@@H](Cc1ccc(O)cc1)C(=O)N[C@H](C)C(=O)NCC(=O)N[C@@H](C)C(=O)N[C@H](C(=O)N[C@H](C(=O)N[C@@H](CC(N)=O)C(=O)N[C@@H](CC(=O)O)C(=O)N[C@@H](CC(C)C)C(=O)O)C(C)C)C(C)C [Ac--Tyr--D--Ala--Gly--Ala--Val--Val--Asn--Asp-- Leu--OH]
IC50 [1, 6]: 230 µM

Ac-YAGVVINDL-OH [Ac--Tyr--Ala--Gly--Val--Val--Ile--Asn--Asp--Leu--OH]
IC50 [1, 4]: 4.3 µM
